# Measurements published in the supplement of paper PMC10307832.
# Tests used:
# Test in all cases: relative viability (nuclei count vs DMSO), 5 days (fraction); higher = more cells survive
# ABC-1 = test system: ABC-1
# Summary of the method: (§1)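 A single step with final 0.05% Triton X-100, 1% formaldehyde and 1 ug/ml Hoechst fixed the cells and stained nuclei 5 days after treatment. Lung cancer cell lines in 1536-well plates had been treated by pin tool the day after seeding with one drug alone or a fixed anchor-drug dose plus five library-drug doses (not always all listed) in √10 steps, and nuclei were counted on 4× images. Relative viability is the ratio of nuclei in treated wells to nuclei in vehicle wells, taken as the median of duplicate plates.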
# CAL-12T = test system: CAL-12T
# Summary of the method: as §1
# COR-L 105 = test system: COR-L 105
# Summary of the method: as §1
# EMC-BAC-2 = test system: EMC-BAC-2
# Summary of the method: as §1
# EPLC-272H = test system: EPLC-272H
# Summary of the method: as §1
# HCC-15 = test system: HCC-15
# Summary of the method: as §1
# HCC-78 = test system: HCC-78
# Summary of the method: as §1
# HOP-62 = test system: HOP-62
# Summary of the method: as §1
# LXF-289 = test system: LXF-289
# Summary of the method: as §1
# NCI-H1666 = test system: NCI-H1666
# Summary of the method: as §1
# NCI-H1755 = test system: NCI-H1755
# Summary of the method: as §1
# NCI-H1915 = test system: NCI-H1915
# Summary of the method: as §1
# NCI-H1975 = test system: NCI-H1975
# Summary of the method: as §1
# NCI-H2023 = test system: NCI-H2023
# Summary of the method: as §1
# NCI-H2085 = test system: NCI-H2085
# Summary of the method: as §1
# NCI-H2126 = test system: NCI-H2126
# Summary of the method: as §1
# NCI-H3122 = test system: NCI-H3122
# Summary of the method: as §1
# NCI-H322M = test system: NCI-H322M
# Summary of the method: as §1
# NCI-H358 = test system: NCI-H358
# Summary of the method: as §1
# UMC-11 = test system: UMC-11
# Summary of the method: as §1
smiles,measurement,setting,value
O=c1cc(-c2cccc3c2Sc2ccccc2S3)oc(N2CCOCC2)c1 + CS(=O)(=O)CCNCc1ccc(-c2ccc3ncnc(Nc4ccc(OCc5cccc(F)c5)c(Cl)c4)c3c2)o1 [Lapatinib] (partner 2 µM),relative viability,ABC-1; first compound 0.08 µM,1.04
same,relative viability,ABC-1; first compound 0.253 µM,1.2
same,relative viability,ABC-1; first compound 0.8 µM,1.28
same,relative viability,ABC-1; first compound 2.53 µM,0.991
same,relative viability,ABC-1; first compound 8 µM,1.41
same,relative viability,CAL-12T; first compound 0.08 µM,0.501
same,relative viability,CAL-12T; first compound 0.253 µM,0.646
same,relative viability,CAL-12T; first compound 0.8 µM,0.595
same,relative viability,CAL-12T; first compound 2.53 µM,0.551
same,relative viability,CAL-12T; first compound 8 µM,0.564
same,relative viability,COR-L 105; first compound 0.08 µM,0.359
same,relative viability,COR-L 105; first compound 0.253 µM,0.323
same,relative viability,COR-L 105; first compound 0.8 µM,0.306
same,relative viability,COR-L 105; first compound 2.53 µM,0.375
same,relative viability,COR-L 105; first compound 8 µM,0.386
same,relative viability,EMC-BAC-2; first compound 0.08 µM,0.873
same,relative viability,EMC-BAC-2; first compound 0.253 µM,0.987
same,relative viability,EMC-BAC-2; first compound 0.8 µM,0.887
same,relative viability,EMC-BAC-2; first compound 2.53 µM,0.865
same,relative viability,EMC-BAC-2; first compound 8 µM,0.929
same,relative viability,EPLC-272H; first compound 0.08 µM,0.935
same,relative viability,EPLC-272H; first compound 0.253 µM,0.841
same,relative viability,EPLC-272H; first compound 0.8 µM,0.867
same,relative viability,EPLC-272H; first compound 2.53 µM,0.779
same,relative viability,EPLC-272H; first compound 8 µM,1.2
same,relative viability,HCC-15; first compound 0.08 µM,0.885
same,relative viability,HCC-15; first compound 0.253 µM,1.02
same,relative viability,HCC-15; first compound 0.8 µM,0.873
same,relative viability,HCC-15; first compound 2.53 µM,0.82
same,relative viability,HCC-15; first compound 8 µM,0.988
same,relative viability,HCC-78; first compound 0.08 µM,0.873
same,relative viability,HCC-78; first compound 0.253 µM,0.822
same,relative viability,HCC-78; first compound 0.8 µM,0.718
same,relative viability,HCC-78; first compound 2.53 µM,0.735
same,relative viability,HCC-78; first compound 8 µM,0.901
same,relative viability,HOP-62; first compound 0.08 µM,0.829
same,relative viability,HOP-62; first compound 0.253 µM,1.08
same,relative viability,HOP-62; first compound 0.8 µM,1.13
same,relative viability,HOP-62; first compound 2.53 µM,0.727
same,relative viability,HOP-62; first compound 8 µM,1.07
same,relative viability,LXF-289; first compound 0.08 µM,0.87
same,relative viability,LXF-289; first compound 0.253 µM,0.935
same,relative viability,LXF-289; first compound 0.8 µM,0.942
same,relative viability,LXF-289; first compound 2.53 µM,0.856
same,relative viability,LXF-289; first compound 8 µM,0.93
same,relative viability,NCI-H1666; first compound 0.08 µM,0.533
same,relative viability,NCI-H1666; first compound 0.253 µM,0.781
same,relative viability,NCI-H1666; first compound 0.8 µM,0.485
same,relative viability,NCI-H1666; first compound 2.53 µM,0.652
same,relative viability,NCI-H1666; first compound 8 µM,0.573
same,relative viability,NCI-H1755; first compound 0.08 µM,1.09
same,relative viability,NCI-H1755; first compound 0.253 µM,1.06
same,relative viability,NCI-H1755; first compound 0.8 µM,1.15
same,relative viability,NCI-H1755; first compound 2.53 µM,1.03
same,relative viability,NCI-H1755; first compound 8 µM,1.08
same,relative viability,NCI-H1915; first compound 0.08 µM,1.02
same,relative viability,NCI-H1915; first compound 0.253 µM,1.04
same,relative viability,NCI-H1915; first compound 0.8 µM,1.13
same,relative viability,NCI-H1915; first compound 2.53 µM,0.905
same,relative viability,NCI-H1915; first compound 8 µM,1.06
same,relative viability,NCI-H1975; first compound 0.08 µM,0.827
same,relative viability,NCI-H1975; first compound 0.253 µM,1.06
same,relative viability,NCI-H1975; first compound 0.8 µM,0.894
same,relative viability,NCI-H1975; first compound 2.53 µM,0.794
same,relative viability,NCI-H1975; first compound 8 µM,0.973
same,relative viability,NCI-H2023; first compound 0.08 µM,0.767
same,relative viability,NCI-H2023; first compound 0.253 µM,1.03
same,relative viability,NCI-H2023; first compound 0.8 µM,0.748
same,relative viability,NCI-H2023; first compound 2.53 µM,0.571
same,relative viability,NCI-H2023; first compound 8 µM,0.94
same,relative viability,NCI-H2085; first compound 0.08 µM,0.636
same,relative viability,NCI-H2085; first compound 0.253 µM,0.86
same,relative viability,NCI-H2085; first compound 0.8 µM,0.767
same,relative viability,NCI-H2085; first compound 2.53 µM,0.703
same,relative viability,NCI-H2085; first compound 8 µM,0.644
same,relative viability,NCI-H2126; first compound 0.08 µM,0.715
same,relative viability,NCI-H2126; first compound 0.253 µM,0.801
same,relative viability,NCI-H2126; first compound 0.8 µM,0.679
same,relative viability,NCI-H2126; first compound 2.53 µM,0.679
same,relative viability,NCI-H2126; first compound 8 µM,0.796
same,relative viability,NCI-H3122; first compound 0.08 µM,1.03
same,relative viability,NCI-H3122; first compound 0.253 µM,1.15
same,relative viability,NCI-H3122; first compound 0.8 µM,1
same,relative viability,NCI-H3122; first compound 2.53 µM,0.96
same,relative viability,NCI-H3122; first compound 8 µM,1.02
same,relative viability,NCI-H322M; first compound 0.08 µM,0.64
same,relative viability,NCI-H322M; first compound 0.253 µM,0.768
same,relative viability,NCI-H322M; first compound 0.8 µM,0.529
same,relative viability,NCI-H322M; first compound 2.53 µM,0.564
same,relative viability,NCI-H322M; first compound 8 µM,0.607
same,relative viability,NCI-H358; first compound 0.08 µM,0.407
same,relative viability,NCI-H358; first compound 0.253 µM,0.392
same,relative viability,NCI-H358; first compound 0.8 µM,0.42
same,relative viability,NCI-H358; first compound 2.53 µM,0.424
same,relative viability,NCI-H358; first compound 8 µM,0.467
same,relative viability,UMC-11; first compound 0.08 µM,1.02
same,relative viability,UMC-11; first compound 0.253 µM,1.28
same,relative viability,UMC-11; first compound 0.8 µM,1.21
same,relative viability,UMC-11; first compound 2.53 µM,0.78
same,relative viability,UMC-11; first compound 8 µM,1.29
